{
  "source": "ChEMBL document CHEMBL1201862",
  "about": "“PubChem BioAssay data set” (2004)",
  "key": {"[1]": {"biological_target": "Lysine-specific demethylase 4A (Homo sapiens, UniProt O75164)", "sequence (O75164 whole entry)": "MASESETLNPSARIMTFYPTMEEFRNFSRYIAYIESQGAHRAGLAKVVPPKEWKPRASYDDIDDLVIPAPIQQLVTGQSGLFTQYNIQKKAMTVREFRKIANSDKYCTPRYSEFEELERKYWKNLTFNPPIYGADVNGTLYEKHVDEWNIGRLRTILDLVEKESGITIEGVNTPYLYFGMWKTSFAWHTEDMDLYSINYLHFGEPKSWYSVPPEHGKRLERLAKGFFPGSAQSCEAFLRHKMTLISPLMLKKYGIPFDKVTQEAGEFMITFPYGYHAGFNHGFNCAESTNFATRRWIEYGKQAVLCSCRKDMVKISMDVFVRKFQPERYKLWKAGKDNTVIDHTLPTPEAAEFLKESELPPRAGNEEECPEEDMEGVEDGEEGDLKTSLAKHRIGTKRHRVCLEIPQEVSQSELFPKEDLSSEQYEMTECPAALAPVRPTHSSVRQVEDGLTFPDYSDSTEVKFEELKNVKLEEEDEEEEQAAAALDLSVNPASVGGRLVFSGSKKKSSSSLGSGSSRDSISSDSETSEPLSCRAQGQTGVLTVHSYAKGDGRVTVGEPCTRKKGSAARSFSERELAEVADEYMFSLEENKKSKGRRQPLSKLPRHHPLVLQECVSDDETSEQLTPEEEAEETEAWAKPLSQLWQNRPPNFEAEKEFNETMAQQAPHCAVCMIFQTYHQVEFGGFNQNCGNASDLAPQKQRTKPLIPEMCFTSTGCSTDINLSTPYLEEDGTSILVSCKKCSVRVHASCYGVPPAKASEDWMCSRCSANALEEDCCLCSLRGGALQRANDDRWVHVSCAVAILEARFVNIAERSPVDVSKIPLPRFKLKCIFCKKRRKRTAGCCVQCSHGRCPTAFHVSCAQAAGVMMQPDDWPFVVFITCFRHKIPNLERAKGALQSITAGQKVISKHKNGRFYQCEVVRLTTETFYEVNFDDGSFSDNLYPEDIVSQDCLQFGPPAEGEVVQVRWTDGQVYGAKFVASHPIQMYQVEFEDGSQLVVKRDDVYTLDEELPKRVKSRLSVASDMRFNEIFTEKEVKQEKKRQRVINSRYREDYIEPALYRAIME", "test": "inhibition of JMJD2A H3K9me3 demethylation – biochemical, DELFIA europium, cherry-picked samples, selectivity assay for GASC-1 inhibitor project, dose response (AID 488840)"}, "[2]": {"biological_target": "Sphingosine 1-phosphate receptor 2 (Homo sapiens, UniProt O95136)", "sequence (O95136 whole entry)": "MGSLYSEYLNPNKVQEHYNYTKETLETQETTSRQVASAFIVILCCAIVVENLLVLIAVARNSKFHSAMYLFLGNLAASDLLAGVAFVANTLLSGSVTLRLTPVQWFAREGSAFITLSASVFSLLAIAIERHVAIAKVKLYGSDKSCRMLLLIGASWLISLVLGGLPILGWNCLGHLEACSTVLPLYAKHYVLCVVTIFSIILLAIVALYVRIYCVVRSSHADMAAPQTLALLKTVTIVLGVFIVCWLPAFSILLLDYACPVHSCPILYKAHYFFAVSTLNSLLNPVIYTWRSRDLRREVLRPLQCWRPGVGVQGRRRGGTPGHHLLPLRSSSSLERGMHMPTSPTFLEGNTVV", "test": "Dose Response Cell Based Assay for Antagonists of the S1P2 Receptor. [Related pubchem assays: 856, 736 ]", "type": "functional"}, "CHO-K1": {"test_system": "CHO-K1", "test": "(§1) Counterscreen for antagonists of the orexin 1 receptor (OX1R; HCRTR1): Homogeneous time resolved fluorescence (HTRF)-based cell-based dose response assay to identify antagonists of the parental CHO-K1 cell line. [Related pubchem assays (depositor defined):AID434989, AID435008, AID463079, AID485270, AID492963, AID492964, AID492965, AID493232, AID504699, AID504701]", "type": "functional", "conditions": "Cricetulus griseus"}, "Jurkat": {"test_system": "Jurkat", "test": "blockers of NF-kB activation in T cells – Jurkat, luciferase reporter, luminescence, B- and T-cell, dose response (AID 489004)", "type": "functional, cell-based", "conditions": "Homo sapiens"}, "[3]": {"test": "as §1, with “Fluorescence-based” for “Homogeneous time resolved fluorescence (HTRF)-based”, “cell-based high throughput” for “cell-based”, “CHO” for “CHO-K1”", "type": "functional"}, "[4]": {"test": "HEK-293T viability loss, compound-treated – cell-based, uHTS hits, cytotoxicity control for B/T-cell NF-kB inhibitor project, dose response (AID 489019)", "type": "functional"}, "[5]": {"biological_target": "T1, Orexin/Hypocretin receptor type 1 (Homo sapiens, UniProt O43613)", "T1 sequence (O43613 whole entry)": "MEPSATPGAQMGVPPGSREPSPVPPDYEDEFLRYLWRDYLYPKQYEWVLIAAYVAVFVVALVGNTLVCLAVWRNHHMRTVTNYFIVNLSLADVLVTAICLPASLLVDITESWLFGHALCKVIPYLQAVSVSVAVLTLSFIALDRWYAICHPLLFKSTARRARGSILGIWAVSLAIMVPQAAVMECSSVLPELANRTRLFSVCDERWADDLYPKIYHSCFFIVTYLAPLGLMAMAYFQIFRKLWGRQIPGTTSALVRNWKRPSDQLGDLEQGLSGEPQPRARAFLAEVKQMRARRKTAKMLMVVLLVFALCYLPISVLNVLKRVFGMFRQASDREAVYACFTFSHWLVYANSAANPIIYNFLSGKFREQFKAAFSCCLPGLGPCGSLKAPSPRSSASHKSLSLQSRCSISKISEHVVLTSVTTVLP", "test": "Homogeneous Time Resolved Fluorescence (HTRF)-based cell-based high throughput dose response assay for antagonists of the orexin 1 receptor (OX1R; HCRTR1). [Related pubchem assays (depositor defined):AID434989, AID435008, AID463079, AID485270, AID492963, AID492964, AID492965, AID493232, AID504717, AID504718]", "type": "functional"}, "[6]": {"biological_target": "T1, Orexin/Hypocretin receptor type 1", "test": "Fluorescence-based cell-based high throughput dose response assay for antagonists of the orexin 1 receptor (OX1R; HCRTR1). [Related pubchem assays (depositor defined):AID434989, AID435008, AID463079, AID485270, AID492963, AID492964, AID492965, AID493232, AID504717, AID504718]", "type": "functional"}, "[7]": {"biological_target": "T2, Microphthalmia-associated transcription factor (Homo sapiens, UniProt O75030)", "T2 sequence (O75030 whole entry)": "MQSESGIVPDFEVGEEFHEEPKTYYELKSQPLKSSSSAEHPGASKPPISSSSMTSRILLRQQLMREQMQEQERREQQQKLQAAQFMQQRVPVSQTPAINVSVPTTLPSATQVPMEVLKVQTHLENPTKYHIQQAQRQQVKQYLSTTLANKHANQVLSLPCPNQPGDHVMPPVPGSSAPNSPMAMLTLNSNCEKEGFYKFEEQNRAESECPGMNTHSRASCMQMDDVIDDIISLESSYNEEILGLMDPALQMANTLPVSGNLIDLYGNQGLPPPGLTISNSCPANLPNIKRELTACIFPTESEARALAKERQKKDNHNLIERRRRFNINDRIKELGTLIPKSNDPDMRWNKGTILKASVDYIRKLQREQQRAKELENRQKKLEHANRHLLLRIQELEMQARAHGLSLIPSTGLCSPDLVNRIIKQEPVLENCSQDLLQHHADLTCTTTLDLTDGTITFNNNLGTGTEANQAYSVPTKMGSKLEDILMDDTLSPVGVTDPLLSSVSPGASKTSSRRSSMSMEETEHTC", "test": "reducers of TRPM1 reporter luminescence, concentration series – cell-based, SK-MEL-5, cherry-picked, set 3, MITF inhibitor project, dose response (AID 493073)", "type": "functional"}, "INS1": {"test_system": "INS1", "test": "INS-1E survival protection against cytokine death – cell-based, luminescence, retest, dose response (AID 449756)", "type": "functional", "conditions": "Rattus norvegicus"}, "[8]": {"test": "reduction of Shn3 3'UTR-driven luciferase in osteoblasts – cell-based, Clone20 osteoblasts, firefly luciferase, cherry-picked, dose response (AID 624132)", "type": "functional"}, "[9]": {"test": "loss of viability in HepG2 cells – cell-based, CellTiter-Glo, cherry-picked, cytotoxicity control for Shn3 inhibitor project, dose response (AID 624134)", "type": "functional"}, "Orexin receptor type 2 [10]": {"biological_target": "T3, Orexin receptor type 2 (Homo sapiens, UniProt O43614)", "T3 sequence (O43614 whole entry)": "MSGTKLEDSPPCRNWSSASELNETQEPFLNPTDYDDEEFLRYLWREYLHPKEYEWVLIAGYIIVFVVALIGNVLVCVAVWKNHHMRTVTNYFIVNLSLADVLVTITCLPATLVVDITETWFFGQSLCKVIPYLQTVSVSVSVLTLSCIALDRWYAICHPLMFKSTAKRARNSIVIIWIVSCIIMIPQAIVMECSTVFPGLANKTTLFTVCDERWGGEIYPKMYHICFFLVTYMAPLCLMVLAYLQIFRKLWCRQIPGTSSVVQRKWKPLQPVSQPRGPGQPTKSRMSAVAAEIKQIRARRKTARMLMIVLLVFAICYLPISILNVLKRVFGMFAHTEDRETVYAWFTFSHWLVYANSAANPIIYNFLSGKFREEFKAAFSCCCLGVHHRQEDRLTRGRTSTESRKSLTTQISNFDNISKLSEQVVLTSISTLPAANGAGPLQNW", "test": "Counterscreen assay for antagonists of the orexin 1 receptor (OX1R; HCRTR1): Fluorescence-based cell-based dose response assay for antagonists of the orexin 2 receptor (OX2R; HCRTR2), run by assay provider.", "type": "functional"}, "[11]": {"test": "non-specific 3'UTR reporter inhibition in Clone20-Shn3RL – cell-based, Renilla luciferase, cherry-picked, counter-screen for Shn3 inhibitor project, dose response (AID 624133)", "type": "functional"}, "Orexin receptor type 2 [12]": {"biological_target": "T3, Orexin receptor type 2", "test": "Counterscreen assay for antagonists of the orexin 1 receptor (OX1R; HCRTR1): Homogeneous Time Resolved Fluorescence (HTRF)-based cell-based dose response assay for antagonists of the orexin 2 receptor (OX2R; HCRTR2), run by assay provider.", "type": "functional"}, "Fatty acid synthase": {"biological_target": "Fatty acid synthase (Homo sapiens, UniProt P49327)", "sequence (P49327 whole entry)": "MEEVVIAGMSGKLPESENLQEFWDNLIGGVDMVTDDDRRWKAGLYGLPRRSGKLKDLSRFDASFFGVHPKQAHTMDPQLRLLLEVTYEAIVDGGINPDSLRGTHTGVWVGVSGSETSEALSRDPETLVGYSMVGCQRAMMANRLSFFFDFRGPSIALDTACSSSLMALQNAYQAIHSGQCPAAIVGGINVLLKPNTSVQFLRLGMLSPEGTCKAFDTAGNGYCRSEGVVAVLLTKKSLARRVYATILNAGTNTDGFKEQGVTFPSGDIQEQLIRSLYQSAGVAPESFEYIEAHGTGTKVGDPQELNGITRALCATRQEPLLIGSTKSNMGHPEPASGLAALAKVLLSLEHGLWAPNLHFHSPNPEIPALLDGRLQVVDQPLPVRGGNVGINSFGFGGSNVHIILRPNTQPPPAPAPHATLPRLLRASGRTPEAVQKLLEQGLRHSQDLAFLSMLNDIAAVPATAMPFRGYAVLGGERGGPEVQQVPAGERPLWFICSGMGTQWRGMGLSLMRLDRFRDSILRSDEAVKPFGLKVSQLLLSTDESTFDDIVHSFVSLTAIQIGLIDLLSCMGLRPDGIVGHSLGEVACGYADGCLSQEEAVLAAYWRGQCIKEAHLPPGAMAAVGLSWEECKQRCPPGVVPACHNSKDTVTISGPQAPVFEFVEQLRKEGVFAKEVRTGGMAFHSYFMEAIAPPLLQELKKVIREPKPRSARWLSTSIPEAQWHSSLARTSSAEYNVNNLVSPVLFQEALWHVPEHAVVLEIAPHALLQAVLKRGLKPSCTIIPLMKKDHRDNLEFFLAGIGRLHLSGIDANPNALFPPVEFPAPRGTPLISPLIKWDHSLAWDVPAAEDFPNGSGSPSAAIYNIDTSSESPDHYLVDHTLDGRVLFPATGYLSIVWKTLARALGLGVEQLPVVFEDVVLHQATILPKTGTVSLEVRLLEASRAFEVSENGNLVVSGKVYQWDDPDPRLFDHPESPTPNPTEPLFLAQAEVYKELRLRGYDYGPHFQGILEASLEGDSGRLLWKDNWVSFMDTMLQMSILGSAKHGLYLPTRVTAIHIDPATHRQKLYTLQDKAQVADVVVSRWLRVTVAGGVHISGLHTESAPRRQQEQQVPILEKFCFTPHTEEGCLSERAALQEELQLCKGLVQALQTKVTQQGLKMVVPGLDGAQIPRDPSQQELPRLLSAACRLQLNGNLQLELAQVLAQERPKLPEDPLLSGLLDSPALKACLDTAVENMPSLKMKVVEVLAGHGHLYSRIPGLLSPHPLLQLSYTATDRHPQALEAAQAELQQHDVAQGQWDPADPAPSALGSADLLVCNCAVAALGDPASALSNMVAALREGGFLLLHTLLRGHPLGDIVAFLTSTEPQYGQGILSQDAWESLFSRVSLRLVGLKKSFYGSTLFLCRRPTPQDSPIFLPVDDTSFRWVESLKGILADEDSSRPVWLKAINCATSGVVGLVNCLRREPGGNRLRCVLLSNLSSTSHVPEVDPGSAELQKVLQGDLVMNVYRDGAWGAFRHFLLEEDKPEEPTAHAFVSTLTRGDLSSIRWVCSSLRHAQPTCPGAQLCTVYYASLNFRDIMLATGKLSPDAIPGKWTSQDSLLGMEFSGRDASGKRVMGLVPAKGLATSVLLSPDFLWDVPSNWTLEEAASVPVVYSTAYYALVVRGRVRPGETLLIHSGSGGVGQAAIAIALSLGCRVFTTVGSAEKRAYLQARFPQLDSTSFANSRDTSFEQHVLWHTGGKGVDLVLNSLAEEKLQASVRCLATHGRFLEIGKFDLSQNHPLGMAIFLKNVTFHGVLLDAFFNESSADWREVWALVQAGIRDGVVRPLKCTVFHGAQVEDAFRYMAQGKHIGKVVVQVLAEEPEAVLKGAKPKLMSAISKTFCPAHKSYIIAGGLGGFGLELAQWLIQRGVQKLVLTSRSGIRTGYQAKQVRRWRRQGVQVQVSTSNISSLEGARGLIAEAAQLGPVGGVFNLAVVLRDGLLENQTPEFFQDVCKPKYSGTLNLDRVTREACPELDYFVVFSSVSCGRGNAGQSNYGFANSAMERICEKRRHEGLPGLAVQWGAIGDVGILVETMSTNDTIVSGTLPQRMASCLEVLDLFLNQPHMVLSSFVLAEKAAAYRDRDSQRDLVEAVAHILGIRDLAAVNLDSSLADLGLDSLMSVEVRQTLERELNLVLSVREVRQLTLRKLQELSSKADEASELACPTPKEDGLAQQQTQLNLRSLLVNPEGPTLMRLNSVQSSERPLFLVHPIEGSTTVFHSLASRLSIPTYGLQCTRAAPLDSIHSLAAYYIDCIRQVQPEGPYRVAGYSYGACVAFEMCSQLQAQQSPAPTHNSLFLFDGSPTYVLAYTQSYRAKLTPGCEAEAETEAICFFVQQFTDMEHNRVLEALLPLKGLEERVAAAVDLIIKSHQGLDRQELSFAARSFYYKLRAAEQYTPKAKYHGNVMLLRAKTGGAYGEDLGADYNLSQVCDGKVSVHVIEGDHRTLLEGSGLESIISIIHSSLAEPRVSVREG", "test": "inhibition of human FAS-TE enzyme activity – biochemical, kinetic fluorescence intensity, dose response (AID 624326)", "type": "functional"}, "[13]": {"biological_target": "T4, Beta-adrenergic receptor kinase 1 (Homo sapiens, UniProt P25098)", "T4 sequence (P25098 whole entry)": "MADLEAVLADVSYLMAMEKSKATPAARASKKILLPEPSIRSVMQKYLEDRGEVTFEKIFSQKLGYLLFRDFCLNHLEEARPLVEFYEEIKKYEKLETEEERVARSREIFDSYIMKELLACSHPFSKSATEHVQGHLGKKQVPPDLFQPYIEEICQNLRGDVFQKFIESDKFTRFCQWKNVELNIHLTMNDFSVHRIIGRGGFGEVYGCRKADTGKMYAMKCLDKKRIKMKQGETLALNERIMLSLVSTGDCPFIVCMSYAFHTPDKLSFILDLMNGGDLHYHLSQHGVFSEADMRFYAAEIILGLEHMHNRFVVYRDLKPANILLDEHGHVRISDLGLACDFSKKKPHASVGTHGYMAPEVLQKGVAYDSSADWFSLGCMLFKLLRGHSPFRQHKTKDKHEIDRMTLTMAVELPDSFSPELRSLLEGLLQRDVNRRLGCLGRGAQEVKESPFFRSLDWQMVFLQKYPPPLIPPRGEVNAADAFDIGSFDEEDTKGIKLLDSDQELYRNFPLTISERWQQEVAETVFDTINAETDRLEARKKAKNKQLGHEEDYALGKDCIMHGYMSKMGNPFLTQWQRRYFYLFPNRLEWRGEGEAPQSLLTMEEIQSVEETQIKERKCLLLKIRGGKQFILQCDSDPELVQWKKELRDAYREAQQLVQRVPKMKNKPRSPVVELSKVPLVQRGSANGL", "test": "blockers of aptamer binding to GRK2 – biochemical, flow cytometry beads, FAM-aptamer, powder set 1, dose response (AID 588720)"}},
  "note": "The source made the active and inactive calls.",
  "data": [
    {"smiles": "O=c1n(Cc2ccccc2)c2cc(Cl)cnc2n1Cc1ccccc1", "values": [
      {"measurement": "AC50", "setting": "[1]", "value": "9.18 µM (active)"}
    ]},
    {"smiles": "COc1ccccc1C(=O)Nc1nc(-c2ccc(S(=O)(=O)N3CCOCC3)cc2)cs1", "values": [
      {"measurement": "IC50", "setting": "[2]", "value": "3.81 µM (active)"},
      {"measurement": "IC50", "setting": "CHO-K1", "value": "> 66.2 µM (inactive)"},
      {"measurement": "IC50", "setting": "Jurkat", "value": "7.79 µM (active)"},
      {"measurement": "IC50", "setting": "[3]", "value": "> 16.6 µM (inactive)"},
      {"measurement": "IC50", "setting": "[4]", "value": "> 80 µM (inactive)"},
      {"measurement": "IC50", "setting": "[5]", "value": "3.59 µM (active)"},
      {"measurement": "IC50", "setting": "[6]", "value": "17.5 µM (inactive)"},
      {"measurement": "AC50", "setting": "[7]", "value": "4.34 µM (active)"},
      {"measurement": "AC50", "setting": "INS1", "value": "3.17 µM (active)"},
      {"measurement": "AC50", "setting": "[8]", "value": "1.21 µM (active)"},
      {"measurement": "AC50", "setting": "[9]", "value": "51.8 µM (active)"},
      {"measurement": "IC50", "setting": "Orexin receptor type 2 [10]", "value": "8.4 µM (active)"},
      {"measurement": "AC50", "setting": "[11]", "value": "2.34 µM (active)"},
      {"measurement": "IC50", "setting": "Orexin receptor type 2 [12]", "value": "5.93 µM (active)"},
      {"measurement": "IC50", "setting": "Fatty acid synthase", "value": "10.9 µM (active)"}
    ]},
    {"smiles": "Cc1cccc(CCNC(=O)CCS(=O)(=O)c2ccc(Br)cc2)c1", "values": [
      {"measurement": "EC50", "setting": "[13]", "value": "22.3 µM (inactive)"}
    ]}
  ]
}
